Data on four compounds can be found in ChEMBL document CHEMBL1139192, “Novel bis(indolyl)maleimide pyridinophanes that are potent, selective inhibitors of glycogen synthase kinase-3” (Bioorg Med Chem Lett, 2007).

The structures appear in SMILES notation.

Test [1] addresses T1, Dual specificity mitogen-activated protein kinase kinase 6 (Homo sapiens) (UniProt P52564).
T1 sequence (whole entry): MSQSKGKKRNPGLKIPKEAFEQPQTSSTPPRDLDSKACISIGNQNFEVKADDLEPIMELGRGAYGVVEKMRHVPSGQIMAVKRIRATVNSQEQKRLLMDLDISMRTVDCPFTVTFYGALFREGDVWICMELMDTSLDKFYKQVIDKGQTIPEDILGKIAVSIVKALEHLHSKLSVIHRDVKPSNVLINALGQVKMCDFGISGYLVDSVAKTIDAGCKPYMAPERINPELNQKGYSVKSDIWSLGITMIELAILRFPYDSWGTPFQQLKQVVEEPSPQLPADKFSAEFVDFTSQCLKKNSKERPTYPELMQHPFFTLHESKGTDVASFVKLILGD
The test can be described thus: Inhibition of human MKK6 at 1 uM relative to control; values are per cent of control.

Test [2] has as its target Tyrosine-protein kinase receptor UFO (Homo sapiens) (UniProt P30530). The test is described as follows: Residual activity of human Axl at 1 uM relative to control.
Test [3] addresses Tyrosine-protein kinase Yes (Homo sapiens) (UniProt P07947). The test can be described thus: Inhibition of human Yes kinase at 1 uM relative to control; values are per cent of control.
In test [4] the target is Casein kinase II (Homo sapiens) (UniProt P67870+P68400+P19784). The test can be described thus: Inhibition of human CK2 at 1 uM relative to control; values are per cent of control.
In test [5] the target is T2, Protein kinase C zeta type (Homo sapiens) (UniProt Q05513).
T2 sequence (whole entry): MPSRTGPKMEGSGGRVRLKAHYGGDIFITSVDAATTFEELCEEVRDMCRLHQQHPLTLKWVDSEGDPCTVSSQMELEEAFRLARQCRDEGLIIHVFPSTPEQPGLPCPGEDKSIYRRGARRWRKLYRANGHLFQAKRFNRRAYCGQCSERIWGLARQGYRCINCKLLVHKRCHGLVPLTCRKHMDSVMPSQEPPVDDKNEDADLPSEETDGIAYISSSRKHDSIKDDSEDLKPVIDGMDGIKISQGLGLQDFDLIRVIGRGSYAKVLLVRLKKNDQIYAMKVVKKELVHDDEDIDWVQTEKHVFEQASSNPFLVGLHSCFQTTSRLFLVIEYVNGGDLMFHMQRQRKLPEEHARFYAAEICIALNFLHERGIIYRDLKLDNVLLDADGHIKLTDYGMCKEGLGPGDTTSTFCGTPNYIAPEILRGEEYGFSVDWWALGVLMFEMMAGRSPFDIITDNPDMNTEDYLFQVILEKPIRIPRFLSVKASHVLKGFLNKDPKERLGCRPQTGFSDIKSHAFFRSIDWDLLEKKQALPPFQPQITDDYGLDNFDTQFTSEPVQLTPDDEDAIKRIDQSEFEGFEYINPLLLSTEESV
The test is described as follows: Residual activity of human PKCzeta at 1 uM relative to control.

Test [6] has as its target Tyrosine-protein kinase SYK (Homo sapiens) (UniProt P43405). The test can be described thus: Inhibition of human Syk at 1 uM relative to control; values are per cent of control.
For test [7], the target named is Mitogen-activated protein kinase 1 (Homo sapiens) (UniProt P28482). The test can be described thus: Inhibition of MAPK1 at 1 uM relative to control; values are per cent of control.
Mitogen-activated protein kinase 1 (Homo sapiens), sequence (P28482 whole entry): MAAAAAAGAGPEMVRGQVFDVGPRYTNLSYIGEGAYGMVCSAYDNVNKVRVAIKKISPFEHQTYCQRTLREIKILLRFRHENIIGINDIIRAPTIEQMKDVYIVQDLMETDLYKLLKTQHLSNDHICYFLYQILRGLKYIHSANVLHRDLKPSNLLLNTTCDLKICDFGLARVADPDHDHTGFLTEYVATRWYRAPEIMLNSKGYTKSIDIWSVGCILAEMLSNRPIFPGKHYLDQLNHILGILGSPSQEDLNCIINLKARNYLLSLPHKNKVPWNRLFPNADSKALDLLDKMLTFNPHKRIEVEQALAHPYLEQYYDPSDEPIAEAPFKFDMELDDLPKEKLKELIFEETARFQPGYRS
Test [8] addresses Tyrosine-protein kinase Fes/Fps (Homo sapiens) (UniProt P07332). The test can be described thus: Inhibition of human Fes at 1 uM relative to control; values are per cent of control.
Test [9] concerns the target Tyrosine-protein kinase Lck (Homo sapiens) (UniProt P06239). The test is described as follows: Inhibition of human Lck at 1 uM relative to control; values are per cent of control.
In test [10] the target is Serine/threonine-protein kinase Chk2 (Homo sapiens) (UniProt O96017). The test is described as follows: Inhibition of human CHK2 at 1 uM relative to control; values are per cent of control.
Serine/threonine-protein kinase Chk2 (Homo sapiens), sequence (O96017 whole entry): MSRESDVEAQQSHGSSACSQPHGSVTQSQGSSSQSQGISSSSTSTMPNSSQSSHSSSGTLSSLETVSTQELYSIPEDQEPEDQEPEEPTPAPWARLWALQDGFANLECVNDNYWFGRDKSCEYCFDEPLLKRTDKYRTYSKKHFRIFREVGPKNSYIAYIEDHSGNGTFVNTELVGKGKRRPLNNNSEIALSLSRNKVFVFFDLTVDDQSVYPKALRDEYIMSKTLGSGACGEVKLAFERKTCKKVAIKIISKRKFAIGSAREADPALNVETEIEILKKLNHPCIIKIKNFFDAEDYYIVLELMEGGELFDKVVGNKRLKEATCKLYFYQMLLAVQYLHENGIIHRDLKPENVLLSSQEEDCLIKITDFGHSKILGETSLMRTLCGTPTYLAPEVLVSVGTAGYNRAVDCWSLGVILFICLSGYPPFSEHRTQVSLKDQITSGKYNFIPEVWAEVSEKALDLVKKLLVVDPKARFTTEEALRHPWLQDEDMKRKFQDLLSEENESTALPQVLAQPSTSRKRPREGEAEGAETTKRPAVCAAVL
Test [11] addresses Mitogen-activated protein kinase 10 (Homo sapiens) (UniProt P53779). The test is described as follows: Inhibition of human JNK3 at 1 uM relative to control; values are per cent of control.
The species entered for the next test is Homo sapiens. The test is described as follows: Inhibition of human PKA at 1 uM relative to control; values are per cent of control.
The target in test [12] is T3, Inhibitor of nuclear factor kappa-B kinase subunit beta (Homo sapiens) (UniProt O14920).
T3 sequence (whole entry): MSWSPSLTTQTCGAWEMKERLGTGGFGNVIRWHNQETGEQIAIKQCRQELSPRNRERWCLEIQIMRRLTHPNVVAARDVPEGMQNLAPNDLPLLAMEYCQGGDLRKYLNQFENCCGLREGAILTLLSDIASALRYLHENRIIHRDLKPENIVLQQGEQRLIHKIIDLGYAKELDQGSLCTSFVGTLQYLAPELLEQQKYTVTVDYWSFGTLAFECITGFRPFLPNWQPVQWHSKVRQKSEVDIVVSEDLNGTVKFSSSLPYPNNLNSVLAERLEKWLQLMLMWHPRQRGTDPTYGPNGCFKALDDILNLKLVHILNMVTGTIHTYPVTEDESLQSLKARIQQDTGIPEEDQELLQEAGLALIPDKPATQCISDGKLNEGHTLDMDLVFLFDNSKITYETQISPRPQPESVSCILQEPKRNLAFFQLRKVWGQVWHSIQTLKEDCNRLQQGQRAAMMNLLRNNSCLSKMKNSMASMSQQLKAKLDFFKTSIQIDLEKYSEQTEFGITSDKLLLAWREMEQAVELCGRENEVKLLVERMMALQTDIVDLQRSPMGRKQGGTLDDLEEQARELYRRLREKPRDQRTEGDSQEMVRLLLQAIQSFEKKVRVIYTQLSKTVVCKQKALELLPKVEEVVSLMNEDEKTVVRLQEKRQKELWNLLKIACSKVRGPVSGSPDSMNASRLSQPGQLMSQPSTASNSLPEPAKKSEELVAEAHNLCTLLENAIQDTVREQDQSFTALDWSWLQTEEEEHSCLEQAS
The test can be described thus: Residual activity of human IKK-beta at 1 uM relative to control.

In test [13] the target is Ribosomal protein S6 kinase alpha-2 (Homo sapiens) (UniProt Q15349). The test is described as follows: Inhibition of human Rsk2 at 1 uM relative to control; values are per cent of control.
Ribosomal protein S6 kinase alpha-2 (Homo sapiens), sequence (Q15349 whole entry): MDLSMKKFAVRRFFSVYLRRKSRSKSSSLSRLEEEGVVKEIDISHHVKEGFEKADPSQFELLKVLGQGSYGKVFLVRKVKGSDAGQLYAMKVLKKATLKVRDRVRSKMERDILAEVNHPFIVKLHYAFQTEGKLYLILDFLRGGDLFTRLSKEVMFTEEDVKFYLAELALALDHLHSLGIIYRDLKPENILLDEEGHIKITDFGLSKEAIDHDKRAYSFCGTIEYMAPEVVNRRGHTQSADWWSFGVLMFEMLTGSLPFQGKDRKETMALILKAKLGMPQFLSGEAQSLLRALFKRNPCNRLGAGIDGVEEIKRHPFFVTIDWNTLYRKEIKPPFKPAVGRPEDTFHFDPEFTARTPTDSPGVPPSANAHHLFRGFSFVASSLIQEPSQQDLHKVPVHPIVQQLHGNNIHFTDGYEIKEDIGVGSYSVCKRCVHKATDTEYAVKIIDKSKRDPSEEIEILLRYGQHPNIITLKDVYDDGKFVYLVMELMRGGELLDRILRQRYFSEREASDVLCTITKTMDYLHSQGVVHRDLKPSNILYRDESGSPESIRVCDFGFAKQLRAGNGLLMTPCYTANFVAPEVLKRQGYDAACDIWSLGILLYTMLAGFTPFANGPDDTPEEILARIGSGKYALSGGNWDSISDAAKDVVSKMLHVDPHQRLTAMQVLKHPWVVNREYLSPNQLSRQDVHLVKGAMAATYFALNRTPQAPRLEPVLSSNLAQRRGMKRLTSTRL
Test [14] deals with Mitogen-activated protein kinase 14 (Homo sapiens) (UniProt Q16539). The test can be described thus: Inhibition of human SAPK2a at 1 uM relative to control; values are per cent of control.
Mitogen-activated protein kinase 14 (Homo sapiens), sequence (Q16539 whole entry): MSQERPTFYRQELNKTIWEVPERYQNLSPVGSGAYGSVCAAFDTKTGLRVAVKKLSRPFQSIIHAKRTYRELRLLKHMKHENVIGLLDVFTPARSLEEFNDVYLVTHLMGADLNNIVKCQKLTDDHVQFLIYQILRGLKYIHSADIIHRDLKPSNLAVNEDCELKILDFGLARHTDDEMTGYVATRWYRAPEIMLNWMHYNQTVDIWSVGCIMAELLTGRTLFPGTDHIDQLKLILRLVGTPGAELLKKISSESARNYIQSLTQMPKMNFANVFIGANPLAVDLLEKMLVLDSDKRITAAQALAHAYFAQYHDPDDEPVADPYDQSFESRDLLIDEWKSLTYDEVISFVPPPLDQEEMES
Test [15] has as its target Tyrosine-protein kinase Fyn (Homo sapiens) (UniProt P06241). The test can be described thus: Inhibition of human Fyn at 1 uM relative to control; values are per cent of control.

Tyrosine-protein kinase Lck (Homo sapiens), sequence (P06239 2-509 limits assumed): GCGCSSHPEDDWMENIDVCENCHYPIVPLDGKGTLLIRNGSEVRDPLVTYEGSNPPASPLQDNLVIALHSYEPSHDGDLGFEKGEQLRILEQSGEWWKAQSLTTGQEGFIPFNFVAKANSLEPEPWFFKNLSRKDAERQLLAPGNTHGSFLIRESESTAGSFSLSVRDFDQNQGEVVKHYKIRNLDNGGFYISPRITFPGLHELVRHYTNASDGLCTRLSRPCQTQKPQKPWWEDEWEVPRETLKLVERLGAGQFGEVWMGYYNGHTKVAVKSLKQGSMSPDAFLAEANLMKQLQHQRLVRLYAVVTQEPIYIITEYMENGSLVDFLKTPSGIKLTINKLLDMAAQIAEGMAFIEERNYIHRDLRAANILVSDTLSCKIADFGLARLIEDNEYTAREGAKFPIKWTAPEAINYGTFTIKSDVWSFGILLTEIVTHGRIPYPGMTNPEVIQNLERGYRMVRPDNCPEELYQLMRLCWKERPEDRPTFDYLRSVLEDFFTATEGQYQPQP
Tyrosine-protein kinase Fyn (Homo sapiens), sequence (P06241 2-537 limits assumed): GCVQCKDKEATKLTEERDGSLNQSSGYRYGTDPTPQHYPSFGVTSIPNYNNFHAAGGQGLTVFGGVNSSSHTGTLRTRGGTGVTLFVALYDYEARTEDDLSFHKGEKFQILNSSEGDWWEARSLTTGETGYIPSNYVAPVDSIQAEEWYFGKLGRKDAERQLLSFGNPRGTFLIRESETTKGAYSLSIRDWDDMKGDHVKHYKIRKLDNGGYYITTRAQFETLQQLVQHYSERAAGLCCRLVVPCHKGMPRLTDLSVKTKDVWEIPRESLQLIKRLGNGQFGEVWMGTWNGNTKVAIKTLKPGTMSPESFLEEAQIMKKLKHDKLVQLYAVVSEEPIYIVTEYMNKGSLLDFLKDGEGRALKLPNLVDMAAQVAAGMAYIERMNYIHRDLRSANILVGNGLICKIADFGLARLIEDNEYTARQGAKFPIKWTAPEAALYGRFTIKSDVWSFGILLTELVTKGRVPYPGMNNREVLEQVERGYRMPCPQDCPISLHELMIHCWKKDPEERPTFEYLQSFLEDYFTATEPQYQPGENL
Tyrosine-protein kinase receptor UFO (Homo sapiens), sequence (P30530 whole entry): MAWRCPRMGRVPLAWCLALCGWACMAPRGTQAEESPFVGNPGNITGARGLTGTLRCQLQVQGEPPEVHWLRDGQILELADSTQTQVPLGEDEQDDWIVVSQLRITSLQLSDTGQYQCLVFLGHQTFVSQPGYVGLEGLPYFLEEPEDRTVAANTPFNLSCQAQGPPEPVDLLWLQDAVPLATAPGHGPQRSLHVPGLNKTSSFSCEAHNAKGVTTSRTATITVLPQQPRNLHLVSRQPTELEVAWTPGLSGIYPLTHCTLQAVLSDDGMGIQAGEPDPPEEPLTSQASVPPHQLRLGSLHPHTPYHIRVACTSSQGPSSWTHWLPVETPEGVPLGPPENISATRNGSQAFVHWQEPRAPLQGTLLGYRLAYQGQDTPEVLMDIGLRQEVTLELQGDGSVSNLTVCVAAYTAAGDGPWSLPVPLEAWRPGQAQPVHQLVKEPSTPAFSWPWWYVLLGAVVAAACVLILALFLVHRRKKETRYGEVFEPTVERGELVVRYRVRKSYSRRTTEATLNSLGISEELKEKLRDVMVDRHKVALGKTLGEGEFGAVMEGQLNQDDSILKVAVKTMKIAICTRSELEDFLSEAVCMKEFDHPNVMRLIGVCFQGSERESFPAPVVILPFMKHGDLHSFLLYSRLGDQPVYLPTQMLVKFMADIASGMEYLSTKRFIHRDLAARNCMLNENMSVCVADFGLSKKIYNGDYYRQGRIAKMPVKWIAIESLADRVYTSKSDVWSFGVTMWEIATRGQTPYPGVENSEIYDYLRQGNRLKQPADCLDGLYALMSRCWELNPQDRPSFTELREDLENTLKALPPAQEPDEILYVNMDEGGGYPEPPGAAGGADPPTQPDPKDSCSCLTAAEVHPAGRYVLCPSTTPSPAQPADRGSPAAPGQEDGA
Mitogen-activated protein kinase 10 (Homo sapiens), sequence (P53779 whole entry): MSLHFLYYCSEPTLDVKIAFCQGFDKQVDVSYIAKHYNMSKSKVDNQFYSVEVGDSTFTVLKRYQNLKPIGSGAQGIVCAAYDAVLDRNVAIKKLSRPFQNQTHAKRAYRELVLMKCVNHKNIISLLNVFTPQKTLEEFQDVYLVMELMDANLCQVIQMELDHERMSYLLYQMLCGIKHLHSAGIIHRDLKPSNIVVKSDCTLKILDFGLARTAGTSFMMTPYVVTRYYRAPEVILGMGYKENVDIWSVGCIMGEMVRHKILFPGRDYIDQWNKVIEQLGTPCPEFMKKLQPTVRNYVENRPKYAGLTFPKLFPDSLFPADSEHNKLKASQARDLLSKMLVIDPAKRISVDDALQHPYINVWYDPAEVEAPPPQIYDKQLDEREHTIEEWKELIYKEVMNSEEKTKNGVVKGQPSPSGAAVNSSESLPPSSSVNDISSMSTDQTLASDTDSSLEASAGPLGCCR
Tyrosine-protein kinase Yes (Homo sapiens), sequence (P07947 2-543 limits assumed): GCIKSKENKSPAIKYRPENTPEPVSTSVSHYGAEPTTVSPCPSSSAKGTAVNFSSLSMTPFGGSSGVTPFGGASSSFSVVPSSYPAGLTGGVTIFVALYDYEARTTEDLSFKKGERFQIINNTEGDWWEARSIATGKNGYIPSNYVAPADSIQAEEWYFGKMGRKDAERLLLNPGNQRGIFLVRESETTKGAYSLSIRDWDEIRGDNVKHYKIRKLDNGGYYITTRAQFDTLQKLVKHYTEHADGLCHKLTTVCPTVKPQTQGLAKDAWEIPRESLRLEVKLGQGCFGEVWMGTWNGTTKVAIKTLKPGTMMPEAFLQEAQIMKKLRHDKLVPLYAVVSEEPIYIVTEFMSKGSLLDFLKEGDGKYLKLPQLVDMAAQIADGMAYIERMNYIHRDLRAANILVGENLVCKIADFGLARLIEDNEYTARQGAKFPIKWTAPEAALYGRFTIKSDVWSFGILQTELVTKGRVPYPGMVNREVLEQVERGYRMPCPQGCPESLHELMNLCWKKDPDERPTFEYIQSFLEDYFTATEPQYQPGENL

`CN(C)c1nc2ccc1CCCn1cc(c3ccccc31)C1=C(C(=O)NC1=O)c1cn(c3ccccc13)CC2`: the residual activity came to 102% in test [1]; 97% in test [2]; 96% in test [3]; 107% in test [4]; 98% in test [5]; 86% in test [6]. For the same compound, the residual activity in [7] turned out to be 97%; in [8] it was 107%; in test [9] it was 96%; in test [10], 91%; in [11], 96%; in the test listed under Homo sapiens it was 90%. In addition, the residual activity in [12] was 128%; in [13], 32%; in test [14] it was 108%; in test [15] it was 103%.

With `O=C1NC(=O)C2=C1c1cn(c3ccccc13)CCCc1cc(nc(N3CCCC3)c1)CCCn1cc2c2ccccc21`, the residual activity in test [1] was 91%; in [2], 106%; in test [3], 58%; in test [4], 108%; in test [5], 99%; in test [6], 105%. Besides, the residual activity in [7] worked out at 99%; in test [8] it was 139%; in [9], 99%; in [10], 84%; in [11], 103%; in the test listed under Homo sapiens it was 104%. Moreover, the residual activity in test [12] turned out to be 125%; in test [13], 12%; in [14], 92%; in [15] it was 106%.

For the compound `CN(C)c1cc2cc(n1)CCCn1cc(c3ccccc31)C1=C(C(=O)NC1=O)c1cn(c3ccccc13)CCC2`, the residual activity in test [1] is 86%; in [2], 104%; in test [3] it was 79%; in test [4], 111%; in test [5] it was 105%; in [6], 101%. Besides, the residual activity was determined as 86% in [7]; 133% in test [8]; 100% in [9]; 94% in test [10]; 107% in test [11]; 95% in the test filed under Homo sapiens. Also, the residual activity was determined as 124% in test [12], 10% in test [13], 92% in [14] and 106% in test [15].

Consider `O=C1NC(=O)C2=C1c1cn(c3ccccc13)CCCc1ccc(c(N3CCCC3)n1)CCCn1cc2c2ccccc21`, for which the residual activity came out at 85% in test [1]; 100% in [2]; 43% in test [3]; 113% in [4]; 116% in test [5]; 109% in [6]. Besides, the residual activity worked out at 110% in [7]; 130% in [8]; 90% in [9]; 91% in test [10]; 102% in test [11]; 102% in the test listed under Homo sapiens. The residual activity in [12] stood at 130%; in test [13] it was 63%; in test [14], 93%; in test [15], 103%.
